The values below are quoted from earlier work in publication PMC11696226 (Nature Communications, 2025).

Read-outs that look alike come from different tables or passages of the source.

The subject of this data set is metastatic TNBC / breast cancer.

With `C=C1C[C@@H]2CC[C@@]34C[C@H]5O[C@H]6[C@@H](O3)[C@H]3O[C@H](CC[C@@H]3O[C@H]6[C@H]5O4)CC(=O)C[C@@H]3[C@@H](OC)[C@@H](C[C@H](O)CN)O[C@H]3C[C@H]3O[C@@H](CC[C@@H]1O2)C[C@@H](C)C3=C` [eribulin], the “median OS” value (TNBC, pooled EMBRACE and Study 301) was 12.4 month. Also, the “median PFS” value (TNBC, pooled EMBRACE and Study 301, 199 patients) is reported as 2.8 month.

With SG: antibody-drug conjugate, the “median OS” value (ASCENT, metastatic TNBC) was 12.1 months. Further, the “median PFS” value (ASCENT, metastatic TNBC, ≥2 lines of chemotherapy) is given as 5.6 months. Moreover, for the setting “ASCENT, p < 0.001”, the “HR for OS vs conventional chemotherapy” value is 0.48 and the “HR for PFS vs conventional chemotherapy” value was 0.41.
